Test results taken from patent US9718788B2, “Heteroaryl compounds useful as inhibitors of E1 activating enzymes” (MILLENNIUM PHARMACEUTICALS, INC., priority 2006, dated 2017).

The compounds below were run against T1, recombinant human NAE enzyme (Homo sapiens, UniProt Q8TBC4) (assay: Nedd8-Activating Enzyme (NAE) HTRF Assay). Conditions: 20 μM ATP, bound given in nM.
T1 construct: His (N); made in house; host or cells: Sf9 insect cells (baculovirus, Bac-to-Bac)
T1 sequence (Q8TBC4 1-463): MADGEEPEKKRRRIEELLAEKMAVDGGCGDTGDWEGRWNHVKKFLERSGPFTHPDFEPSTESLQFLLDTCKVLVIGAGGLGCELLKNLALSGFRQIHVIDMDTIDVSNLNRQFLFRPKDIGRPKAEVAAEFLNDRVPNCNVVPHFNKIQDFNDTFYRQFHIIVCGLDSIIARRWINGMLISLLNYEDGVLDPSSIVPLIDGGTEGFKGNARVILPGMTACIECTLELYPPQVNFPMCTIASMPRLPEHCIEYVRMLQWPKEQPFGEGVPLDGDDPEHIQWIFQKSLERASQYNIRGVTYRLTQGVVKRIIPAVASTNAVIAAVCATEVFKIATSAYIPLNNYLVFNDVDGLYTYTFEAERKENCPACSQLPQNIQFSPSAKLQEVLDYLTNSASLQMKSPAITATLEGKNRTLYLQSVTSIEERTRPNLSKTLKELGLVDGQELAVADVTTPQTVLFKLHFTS
T1 sequence (Q13564 1-534 partner): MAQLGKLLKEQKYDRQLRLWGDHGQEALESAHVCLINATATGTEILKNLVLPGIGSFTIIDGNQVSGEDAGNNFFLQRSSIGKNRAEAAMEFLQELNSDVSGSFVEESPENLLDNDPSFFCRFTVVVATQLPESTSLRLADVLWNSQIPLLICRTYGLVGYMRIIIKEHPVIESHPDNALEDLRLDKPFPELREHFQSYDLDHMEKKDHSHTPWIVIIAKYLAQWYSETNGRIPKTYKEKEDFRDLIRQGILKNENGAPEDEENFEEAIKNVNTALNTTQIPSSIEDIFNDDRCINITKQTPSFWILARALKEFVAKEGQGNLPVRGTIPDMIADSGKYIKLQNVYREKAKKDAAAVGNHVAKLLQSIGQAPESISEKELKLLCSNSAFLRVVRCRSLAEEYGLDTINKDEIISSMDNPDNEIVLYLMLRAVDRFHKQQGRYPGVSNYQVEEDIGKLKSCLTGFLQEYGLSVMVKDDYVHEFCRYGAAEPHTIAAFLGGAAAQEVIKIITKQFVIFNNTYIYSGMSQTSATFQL
Assay type: biochemical
Experimental: Following manufacturer instructions, baculoviruses were generated with the Bac-to-Bac Expression System (Invitrogen) for the following proteins: untagged NAEα (APPBP1; NP_003896.1), N-terminally His-tagged NAEJ (UBE1C; NP_003959.3), untagged SAEα (SAE1; NP_005491.1), N-terminally His-tagged SAE3 (UBA2; NP_005490.1), N-terminally His-tagged murine UAE (UBE1X; NP_033483). NAEα/His-NAEβ and SAEα/His-SAEβ complexes were generated by co-infection of Sf9 cells, which were harvested after 48 hours. His-mUAE was generated by single infection of Sf9 cells and harvested after 72 hours. Expressed proteins were purified by affinity chromatography (Ni-NTA agarose, Qiagen) using standard buffers. Nedd8-Activating Enzyme (NAE) HTRF Assay. The NAE enzymatic reaction totaled 50 μL and contained 50 mM HEPES (pH 7.5), 0.05% BSA, 5 mM MgCl2, 20 μM ATP, 250 μM GSH, 0.01 μM Ubc12-GST, 0.075 μM Nedd8-Flag and 0.20 nM recombinant human NAE enzyme. The enzymatic reaction mixture, with and without compound inhibitor, was incubated at room temperature 24° C. for 105 minutes in a 384-well plate before termination with 25 μL of Stop/Detection buffer (0.1M HEPES pH 7.5, 0.05% Tween20, 20 mM EDTA, 410 mM KF, 0.53 nM Europium-Cryptate labeled monoclonal anti-FLAG M2 antibody (CisBio International) and 8.125 μg/mL PHYCOLINK goat anti-GST allophycocyanin (XL-APC) antibody (Prozyme)). After incubation for 1 hour at 24° C., quantification of the FRET was performed on the Analyst™ HT 96.384 (Molecular Devices).

SMILES	IC50 [nM]
CN(c1ncnc2[nH]c(-c3cccc4ccccc34)nc12)[C@@H]1C[C@@H](COS(N)(=O)=O)[C@@H](O)C1 [Compound I-46, ((1S,2S,4R)-2-hydroxy-4-{methyl[8-(1-naphthyl)-9H-purin-6-yl]amino}-cyclopentyl)methyl sulfamate]	≤ 500
CO[C@H]1Cc2ccccc2[C@H]1Nc1cc(N[C@@H]2C[C@@H](COS(N)(=O)=O)[C@@H](O)C2)ncn1 [Compound I-47, {(1S,2S,4R)-2-hydroxy-4-[(6-{[(1R,2S)-2-methoxy-2,3-dihydro-1H-inden-1-yl]-amino}pyrimidin-4-yl)amino]cyclopentyl}methyl sulfamate]	≤ 500
NS(=O)(=O)OC[C@@H]1C[C@@H](Nc2ncnc3[nH]c(-c4ccccc4-c4ccccc4)nc23)C[C@@H]1O [Compound I-48, {(1S,2S,4R)-4-[(8-biphenyl-2-yl-9H-purin-6-yl)amino]-2-hydroxycyclopentyl}-methyl sulfamate]	> 500
NS(=O)(=O)OC[C@@H]1C[C@@H](Nc2ncnc3[nH]c(-c4cccc5ccccc45)nc23)C[C@@H]1O [Compound I-49, ((1S,2S,4R)-2-hydroxy-4-{[8-(1-naphthyl)-9H-purin-6-yl]amino}cyclopentyl)-methyl sulfamate]	≤ 500
CN(C)C[C@H]1Cc2ccccc2[C@H]1Nc1cc(O[C@@H]2C[C@@H](COS(N)(=O)=O)[C@@H](O)C2)ncn1 [Compound I-53, ((1S,2S,4R)-4-{[6-({(1S,2R)-2-[(dimethylamino)methyl]-2,3-dihydro-1H-inden-1-yl}amino)pyrimidin-4-yl]oxy}-2-hydroxycyclopentyl)methyl sulfamate]	> 500
NS(=O)(=O)OC[C@@H]1C[C@@H](Nc2cc(N[C@H]3CCc4ccccc43)nc(=O)[nH]2)C[C@@H]1O [Compound I-54, [(1S,2S,4R)-4-({6-[(1S)-2,3-dihydro-1H-inden-1-ylamino]-2-oxo-2,3-dihydropyrimidin-4-yl}amino)-2-hydroxycyclopentyl]methyl sulfamate]	> 500
CO[C@H]1Cc2ccccc2[C@H]1Nc1ncnc(N[C@@H]2C[C@H](COS(N)(=O)=O)[C@@H](O)[C@H]2O)n1 [Compound I-55, {(1R,2R,3S,4R)-2,3-dihydroxy-4-[(4-{[(1R,2S)-2-methoxy-2,3-dihydro-1H-inden-1-yl]amino}-1,3,5-triazin-2-yl)amino]cyclopentyl}methyl sulfamate]	≤ 500
NS(=O)(=O)OC[C@@H]1C[C@@H](Nc2c(Cl)cnc3[nH]c(-c4cccc5ccccc45)nc23)C[C@@H]1O [Compound I-56, ((1S,2S,4R)-4-{[6-chloro-2-(1-naphthyl)-3H-imidazo[4,5-b]pyridin-7-yl]amino}-2-hydroxycyclopentyl)methyl sulfamate]	≤ 500
NS(=O)(=O)OC[C@@H]1C[C@@H](Nc2ncnc3[nH]c(-c4cccc(Cl)c4)nc23)C[C@@H]1O [Compound I-60, ((1S,2S,4R)-4-{[8-(3-chlorophenyl)-9H-purin-6-yl]amino}-2-hydroxycyclopentyl)methyl sulfamate]	≤ 500
NS(=O)(=O)OC[C@@H]1C[C@@H](Nc2ncnc3[nH]c(-c4ccccc4OC(F)(F)F)nc23)C[C@@H]1O [Compound I-62, [(1S,2S,4R)-2-hydroxy-4-({8-[2-(trifluoromethoxy)phenyl]-9H-purin-6-yl}-amino)cyclopentyl]methyl sulfamate]	≤ 500
NS(=O)(=O)OC[C@@H]1C[C@@H](Oc2ncnc3[nH]c(-c4ccccc4)nc23)C[C@@H]1O [Compound I-63, {(1S,2S,4R)-2-hydroxy-4-[(8-phenyl-9H-purin-6-yl)oxy]cyclopentyl}methyl sulfamate]	≤ 500
CN(C)c1ccc(-c2nc3c(N[C@@H]4C[C@@H](COS(N)(=O)=O)[C@@H](O)C4)ncnc3[nH]2)c2ccccc12 [Compound I-64, [(1S,2S,4R)-4-({8-[4-(dimethylamino)-1-naphthyl]-9H-purin-6-yl}amino)-2-hydroxycyclopentyl]methyl sulfamate]	≤ 500
CC1(C)C[C@H](Nc2cc(N[C@@H]3C[C@@H](COS(N)(=O)=O)[C@@H](O)C3)ncn2)c2ccccc21 [Compound I-65, {(1S,2S,4R)-4-[(6-{[(1S)-3,3-dimethyl-2,3-dihydro-1H-inden-1-yl]amino}-pyrimidin-4-yl)amino]-2-hydroxycyclopentyl}methyl sulfamate]	≤ 500
CN(C)C(=O)[C@H]1Cc2ccccc2[C@H]1Nc1cc(O[C@@H]2C[C@@H](COS(N)(=O)=O)[C@@H](O)C2)ncn1 [Compound I-66, ((1S,2S,4R)-4-{[6-({(1S,2S)-2-[(dimethylamino)carbonyl]-2,3-dihydro-1H-inden-1-yl}amino)pyrimidin-4-yl]oxy}-2-hydroxycyclopentyl)methyl sulfamate]	> 500
COc1cccc(-c2nc3c(N[C@@H]4C[C@@H](COS(N)(=O)=O)[C@@H](O)C4)ncnc3[nH]2)c1OC [Compound I-67, ((1S,2S,4R)-4-{[8-(2,3-dimethoxyphenyl)-9H-purin-6-yl]amino}-2-hydroxycyclopentyl)methyl sulfamate]	≤ 500
NS(=O)(=O)OC[C@@H]1C[C@@H](Nc2ncnc3[nH]c(-c4ccccc4OCc4ccccc4)nc23)C[C@@H]1O [Compound I-68, [(1S,2S,4R)-4-({8-[2-(benzyloxy)phenyl]-9H-purin-6-yl}amino)-2-hydroxycyclopentyl]methyl sulfamate]	≤ 500
NS(=O)(=O)OC[C@@H]1C[C@@H](Nc2ncnc3[nH]c(-c4ccccc4)nc23)C[C@@H]1O [Compound I-69, {(1S,2S,4R)-2-hydroxy-4-[(8-phenyl-9H-purin-6-yl)amino]cyclopentyl}methyl sulfamate]	≤ 500
CC1(C)C[C@H](Nc2ncnc(N[C@@H]3C[C@@H](COS(N)(=O)=O)[C@@H](O)C3)c2F)c2ccccc21 [Compound I-71, {(1S,2S,4R)-4-[(6-{[(1S)-3,3-dimethyl-2,3-dihydro-1H-inden-1-yl]amino}-5-fluoropyrimidin-4-yl)amino]-2-hydroxycyclopentyl}methyl sulfamate]	≤ 500
NS(=O)(=O)OC[C@@H]1C[C@@H](Oc2ncnc3nc(-c4ccnc5cc(Cl)ccc45)[nH]c23)C[C@@H]1O [Compound I-73, ((1S,2S,4R)-4-{[8-(7-chloroquinolin-4-yl)-7H-purin-6-yl]oxy}-2-hydroxycyclopentyl)methyl sulfamate]	≤ 500
NS(=O)(=O)OC[C@@H]1C[C@@H](Nc2ncnc3[nH]c(-c4cccc5ccccc45)cc23)C[C@@H]1O [Compound I-74, ((1S,2S,4R)-2-hydroxy-4-{[6-(1-naphthyl)-7H-pyrrolo[2,3-d]pyrimidin-4-yl]amino}cyclopentyl)methyl sulfamate]	≤ 500

Same assay, conditions: 20 μM ATP, bound given in μM

SMILES	IC50 [nM]
NS(=O)(=O)OC[C@@H]1C[C@@H](Nc2ncnc3[nH]c(-c4ccccc4-c4ccccc4)nc23)C[C@@H]1O [Compound I-48, {(1S,2S,4R)-4-[(8-biphenyl-2-yl-9H-purin-6-yl)amino]-2-hydroxycyclopentyl}-methyl sulfamate]	< 10000
CN(C)C[C@H]1Cc2ccccc2[C@H]1Nc1cc(O[C@@H]2C[C@@H](COS(N)(=O)=O)[C@@H](O)C2)ncn1 [Compound I-53, ((1S,2S,4R)-4-{[6-({(1S,2R)-2-[(dimethylamino)methyl]-2,3-dihydro-1H-inden-1-yl}amino)pyrimidin-4-yl]oxy}-2-hydroxycyclopentyl)methyl sulfamate]	< 10000
NS(=O)(=O)OC[C@@H]1C[C@@H](Nc2cc(N[C@H]3CCc4ccccc43)nc(=O)[nH]2)C[C@@H]1O [Compound I-54, [(1S,2S,4R)-4-({6-[(1S)-2,3-dihydro-1H-inden-1-ylamino]-2-oxo-2,3-dihydropyrimidin-4-yl}amino)-2-hydroxycyclopentyl]methyl sulfamate]	< 10000
NS(=O)(=O)OC[C@H]1C[C@@H](O)[C@H](Nc2cc(N[C@H]3CCc4ccccc43)ncn2)C1 [Compound I-58, [(1R,3R,4R)-3-({6-[(1S)-2,3-dihydro-1H-inden-1-ylamino]pyrimidin-4-yl}-amino)-4-hydroxycyclopentyl]methyl sulfamate]	> 10000
NS(=O)(=O)OC[C@@H]1C[C@@H](Oc2cc(N3CCc4ccccc4C3)ncn2)C[C@@H]1O [Compound I-61, ((1S,2S,4R)-4-{[6-(3,4-dihydroisoquinolin-2(1H)-yl)pyrimidin-4-yl]oxy}-2-hydroxycyclopentyl)methyl sulfamate]	> 10000
CN(C)C(=O)[C@H]1Cc2ccccc2[C@H]1Nc1cc(O[C@@H]2C[C@@H](COS(N)(=O)=O)[C@@H](O)C2)ncn1 [Compound I-66, ((1S,2S,4R)-4-{[6-({(1S,2S)-2-[(dimethylamino)carbonyl]-2,3-dihydro-1H-inden-1-yl}amino)pyrimidin-4-yl]oxy}-2-hydroxycyclopentyl)methyl sulfamate]	< 10000
